Test results from article PMC10241923 (British Journal of Cancer, 2023).

Target: CDK9 (Homo sapiens, UniProt P50750)
Test: CeTSA isothermal dose-response at […] °C in intact LNCaP cells, immunoblot
Format: cell-based

CDK9, sequence (P50750 whole entry): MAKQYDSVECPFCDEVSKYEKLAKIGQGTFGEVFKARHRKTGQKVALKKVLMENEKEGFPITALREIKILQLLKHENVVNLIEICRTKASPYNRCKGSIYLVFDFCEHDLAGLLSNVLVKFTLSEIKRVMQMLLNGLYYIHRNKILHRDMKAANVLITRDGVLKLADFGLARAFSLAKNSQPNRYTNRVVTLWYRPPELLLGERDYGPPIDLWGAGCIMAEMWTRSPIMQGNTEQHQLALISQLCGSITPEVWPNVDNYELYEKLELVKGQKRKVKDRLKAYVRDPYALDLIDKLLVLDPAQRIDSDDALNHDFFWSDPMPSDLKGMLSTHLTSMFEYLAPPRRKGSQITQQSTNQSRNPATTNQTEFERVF

Question: With `CC(C)c1cnn2c(NCc3ccccc3)cc(NC[C@H]3CCNC[C@@H]3O)nc12` [CT7001] as the compound, how does the “CeTSA isothermal dose-response at 54 °C in intact LNCaP cells, immunoblot” value read?
Answer: The value was “has a degree of engagement also with CDK2 and CDK9 at higher concentrations”.
